Literature values in patent publication US8951969B2, “Compositions and methods for treating centrally mediated nausea and vomiting” (Helsinn Healthcare S.A., priority 2009, dated 2015).

Assays:
[1] = system: nausea following moderately or highly emetogenic chemotherapy; settings: humans, compared to a 5-HT3 antagonist alone; cited from earlier work
[2] = system: nausea, moderately emetogenic chemotherapy; settings: cited from earlier work

| SMILES | effect on incidence or severity of nausea [1] | effect against nausea ([2]; administered in response to moderately emetogenic chemotherapy) | side effect ([2]; moderately emetogenic chemotherapy) |
| --- | --- | --- | --- |
| C[C@@H](O[C@H]1OCCN(Cc2n[nH]c(=O)[nH]2)[C@H]1c1ccc(F)cc1)c1cc(C(F)(F)F)cc(C(F)(F)F)c1 [aprepitant] | unable to induce a significant reduction in the incidence or severity of nausea | – | – |
| CC(=O)N1CCN([C@H]2CCN(C(=O)N(C)[C@H](C)c3cc(C(F)(F)F)cc(C(F)(F)F)c3)[C@@H](c3ccc(F)cc3C)C2)CC1 [casopitant, (2R,4S)-4-(4-acetytlpiperazin-1-yl)-N-{(1R)-1-[3,5-bis(trifluoromethyl)phenyl]ethyl}-2-(4-fluoro-2-methylphenyl)-N-methylpiperidine-1-carboxamide] | – | no statistically significant effect against nausea | induced nausea as a side effect |
